According to patent US20220323385A1, “PHARMACEUTICAL COMPOSITION FOR AORTIC ANEURYSM PROPHYLAXIS AND PROCESSED FOOD” (priority 2019, published 2022):

System: abdominal aortic aneurysm
Assay: rat abdominal aortic aneurysm induction model (catheter inserted in abdominal aorta and ligated, high-fat feed)
Format: in vivo, SD-male rats
Conditions: for survival rate (%): Example 2, FIG. 1; for diameter of the aorta in the abdominal aortic aneurysm induction part: Example 2, FIG. 2, control group about 4 mm; for Occurrence not confirmed (Table 4, Rupture rate of abdominal aortic aneurysm): rupture not observed; for Occurrence confirmed (abdominal aortic aneurysm) / Occurrence not confirmed (abdominal aortic aneurysm): number of rats; for Frequency of occurrence (%) (Table 4, Rupture rate of abdominal aortic aneurysm): rupture rate in rats with observed abdominal aortic aneurysms; for Frequency of occurrence (%) (Table 4, Rupture rate of abdominal aortic aneurysm) / Rupture rate (%) of abdominal aortic aneurysm: control group 28.6%; for Rupture rate (%) of abdominal aortic aneurysm: rats with observed abdominal aortic aneurysms
Protocol: SD-male rats of 4 weeks old (70 g to 90 g) were used. Eighteen rats and eight rats were prepared as a control group and a medium chain fatty acid administration group, respectively.
Upon arrival, all rats were preliminarily fed normal feed without additional supplements for one week. Then, the medium chain fatty acid administration group was fed normal feed and forcibly administered with high-content neutral fats (decanoic acid occupied 98% of constituent fatty acids) in an amount of 1,145 mg/kg body-weight/day. The control group was fed normal feed and forcibly administered with water in an amount of 1,145 mg/kg body-weight/day.
In this test, the medium chain fatty acid was fed in the form of tricaprin. Tricaprin is a substance in which decanoic acid (C10), a linear saturated fatty acid having 10 carbon atoms, is bonded to glycerol.
From the second week after the arrival, all rats were fed high-fat feed. Then, the medium chain fatty acid administration group was forcibly administered with the high-content neutral fats in an amount of 1,145 mg/kg body-weight/day. Furthermore, the control group was forcibly administered with water in an amount of 1,145 mg/kg body-weight/day.
Three weeks after the arrival, an abdominal aortic aneurysm induction treatment was performed. In the abdominal aortic aneurysm induction treatment, a catheter is inserted in the rat abdominal aorta and the inserted catheter is ligated with the abdominal aorta. The treatment was performed according to the method disclosed in Patent Literature 3.
After that, for the next four weeks, the control group had been fed the high-fat feed and forcibly administered with water in an amount of 1,145 mg/kg body-weight/day. Furthermore, the medium chain fatty acid administration group had been fed the high-fat feed and forcibly administered with the high-content neutral fats. Then, four weeks after the abdominal aortic aneurysm induction treatment, the rats were euthanized and dissected.
Note that the abdominal aortic aneurysm was determined to have occurred if the blood vessel at the site where the abdominal aortic aneurysm induction treatment was performed dilated to twice or more its original thickness.
Next, test results obtained by using tricaprin (an ester of three decanoic acids and glycerol) and tricaprylin (an ester of three octanoic acids of C8 and glycerol) as the medium chain fatty acid is shown. The animal model preparation method is the same as that in Example 1. A group in which tricaprin (C10) was given is referred to as a tricaprin administration group and a group in which tricaprylin (C8) was given is referred to as a tricaprylin administration group.
Twenty-three, eleven, and eighteen model animals were prepared as a control group, the tricaprylin administration group, and the tricaprin administration group, respectively.
The horizontal axis indicates the number of days (day) from Day 0 when the abdominal aortic aneurysm induction treatment was performed, and the vertical axis indicates the survival rate (%). The survival rate declined on Day 17 in the control, while the survival rate remained 100% until Day 26 in the tricaprylin administration group. […] The tricaprin administration group maintained the 100% survival rate during the test period.
Referring to FIG. 2, the horizontal axis indicates which measurements are from the normal blood vessel and which are from the blood vessel at the abdominal aortic aneurysm induction part; the vertical axis indicates the diameter (mm) of the aorta. The normal blood vessel refers to the normal aorta at the upper and lower sides of the part in which the abdominal aortic aneurysm was induced.

[1] = Example 2, number of rats among rats with observed abdominal aortic aneurysms
[2] = Example 2, 11 rats tricaprylin group, 18 rats tricaprin group
[3] = Example 1, number of rats among rats with observed abdominal aortic aneurysms

| SMILES | survival rate (%) (until Day 26 after induction treatment, control declined on Day 17) | diameter of the aorta in the abdominal aortic aneurysm induction part | Frequency of occurrence (%) of abdominal aortic aneurysm (Example 2, control group 30.4%) [%] | Occurrence confirmed (Table 4, Rupture rate of abdominal aortic aneurysm) [1] | Occurrence not confirmed (Table 4, Rupture rate of abdominal aortic aneurysm) [1] | Occurrence confirmed (abdominal aortic aneurysm) [2] | Occurrence not confirmed (abdominal aortic aneurysm) [2] | Frequency of occurrence (%) (Table 4, Rupture rate of abdominal aortic aneurysm) (Example 2) | Frequency of occurrence (%) of abdominal aortic aneurysm (Example 1, 1,145 mg/kg body-weight/day, four weeks after induction treatment, control group 38.9%) [%] | Rapture confirmed (abdominal aortic aneurysm) [3] | Rapture not confirmed (abdominal aortic aneurysm) [3] | Occurrence not confirmed (abdominal aortic aneurysm) (Example 1, 8 rats in group, 1,145 mg/kg body-weight/day forcibly administered, four weeks after induction treatment) | Occurrence confirmed (abdominal aortic aneurysm) (Example 1, 8 rats in group, vessel dilated to twice or more its original thickness, 1,145 mg/kg body-weight/day) | Rupture rate (%) of abdominal aortic aneurysm (Example 1, listed as Medium chain fatty acid) [%] | Rupture rate (%) of abdominal aortic aneurysm (Example 1, listed as medium chain fatty acid) [%] | survival rate (%) (during the test period) | Frequency of occurrence (%) (Table 4, Rupture rate of abdominal aortic aneurysm) (Example 2, listed as tricaprin) |
| --- | --- | --- | --- | --- | --- | --- | --- | --- | --- | --- | --- | --- | --- | --- | --- | --- | --- |
| CCCCCCCC(=O)OCC(COC(=O)CCCCCCC)OC(=O)CCCCCCC [Tricaprylin] | 100 | about 3.5 mm | 27.3 | 1 | 2 | 3 | 8 | 33.3 |  |  |  |  |  |  |  |  |  |
| CCCCCCCCCC(=O)OCC(COC(=O)CCCCCCCCC)OC(=O)CCCCCCCCC [Tricaprin] |  | about 2.2 mm | 5.6 | 0 | 1 | 1 | 17 | 0 | 12.5 | 0 | 1 | 7 | 1 | 0 | 0.0 | 100 | 0.0 |
